The values below come from PMC9834298, “Prolyl-tRNA synthetase as a novel therapeutic target in multiple myeloma” (Blood Cancer Journal, 2023).

The Kd is a measure of binding affinity in units of concentration. Higher therefore signals lower affinity.

In test [1] the target is T1, human prolyl-tRNA synthetase (ProRS domain of GluProRS) (Homo sapiens, UniProt P07814).
T1 construct: gene EPRS1; recombinant human ProRS
T1 sequence (P07814 998-1512): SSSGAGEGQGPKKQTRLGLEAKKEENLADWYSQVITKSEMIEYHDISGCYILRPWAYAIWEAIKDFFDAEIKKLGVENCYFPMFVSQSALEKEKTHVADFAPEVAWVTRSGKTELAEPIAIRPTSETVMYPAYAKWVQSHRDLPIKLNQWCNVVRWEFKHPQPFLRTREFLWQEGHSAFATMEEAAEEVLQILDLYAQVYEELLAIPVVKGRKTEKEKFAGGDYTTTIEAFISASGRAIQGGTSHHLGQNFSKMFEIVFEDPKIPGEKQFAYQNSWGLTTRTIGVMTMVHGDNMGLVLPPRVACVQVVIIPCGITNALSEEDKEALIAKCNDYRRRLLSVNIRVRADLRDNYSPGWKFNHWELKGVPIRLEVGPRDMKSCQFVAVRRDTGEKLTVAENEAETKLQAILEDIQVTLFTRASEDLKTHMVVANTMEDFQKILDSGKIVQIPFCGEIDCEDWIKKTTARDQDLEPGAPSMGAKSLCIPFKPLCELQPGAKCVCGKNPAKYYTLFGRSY
Nature of the test: TR-FRET ligand displacement with […] proline; crystal structure with proline. In kind it is binding.

In test [2] the target is T1, human prolyl-tRNA synthetase (ProRS domain of GluProRS). The test can be described thus: TR-FRET ligand displacement with […] ATP. Type of test: binding. (In general: In TR-FRET formats the signal depends on donor and acceptor labels being close together.)

On to `O=C(NC1Cc2ccccc2C1)c1nccnc1NC(=O)N1CCCCC1` [NCP26], for which the Kd in test [1] worked out at 0.35 nM. `O=C(CC1NCCCC1O)Cn1cnc2cc(Br)c(Cl)cc2c1=O` (centres unmarked) [HFG, Halofuginone]: the affinity in test [2], expressed as Kd, was 0.19 nM.
